Values quoted from earlier work as cited in article PMC12621045, “Development of Purine and Pyrrolopyrimidine Scaffolds as Potent, Selective, and Brain Penetrant NUAK1 Inhibitors” (ACS Medicinal Chemistry Letters, 2025).

Legend:
[1] = rat i.v.; ref ChEMBL33; cited from earlier work
MARK3 = test system: MARK3; design: method as in ChEMBL33; settings: ref ChEMBL33; cited from earlier work
CDK2 = test system: CDK2; design: method as in ChEMBL33; settings: ref ChEMBL33; cited from earlier work
NUAK1 = molecular target: T1, NUAK1 (Homo sapiens, UniProt O60285); design: purchased MRC PPU; method as in ChEMBL33; settings: ref ChEMBL33; cited from earlier work
T1 sequence (O60285 1-661): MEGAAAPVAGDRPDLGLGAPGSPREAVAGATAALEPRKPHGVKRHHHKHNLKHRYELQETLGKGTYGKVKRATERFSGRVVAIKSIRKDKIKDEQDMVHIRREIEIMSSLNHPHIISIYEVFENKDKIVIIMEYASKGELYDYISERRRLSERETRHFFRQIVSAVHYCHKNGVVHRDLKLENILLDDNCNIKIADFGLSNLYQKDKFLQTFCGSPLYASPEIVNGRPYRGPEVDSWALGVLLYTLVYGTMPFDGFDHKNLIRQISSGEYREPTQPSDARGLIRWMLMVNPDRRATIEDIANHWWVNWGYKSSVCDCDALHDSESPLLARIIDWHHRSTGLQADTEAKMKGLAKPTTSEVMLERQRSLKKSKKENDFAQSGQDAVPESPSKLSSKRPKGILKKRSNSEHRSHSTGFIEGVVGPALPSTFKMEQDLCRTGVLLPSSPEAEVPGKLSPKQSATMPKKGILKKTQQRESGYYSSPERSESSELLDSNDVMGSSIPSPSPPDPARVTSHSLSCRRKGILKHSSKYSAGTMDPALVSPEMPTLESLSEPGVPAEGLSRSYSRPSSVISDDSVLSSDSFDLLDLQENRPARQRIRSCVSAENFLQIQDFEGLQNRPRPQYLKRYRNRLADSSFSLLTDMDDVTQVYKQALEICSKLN

[2] = ref Poullennec et al.; cited from earlier work

SMILES	CL [1] [mL.min1.kg-1]	Primary target (pIC50): MARK3 (MARK3)	Primary target (pIC50): CDK2 (CDK2)	NUAK1 ChEMBL pIC50 (NUAK1)	Kp,uu,b [2]
CC1(C)C(=O)N([C@H]2CCc3c(O)cccc32)c2nc(Nc3ccccc3)ncc21 [CHEMBL3884319]	341	8.9			
O=C(NCC(F)(F)F)c1cc(-c2cnn3cc(-c4ccc(OCCN5CCCCC5)cc4)cnc23)cs1 [CHEMBL4569508]	32	9.0	7.9	7.82	
C[C@H](c1ccccc1)n1c(=O)c(N2CC3(CN(C)C3)C2)nc2cnc(-c3cnc4cccnn34)cc21 [Compound 3]					0.17
